Reference: paper PMC9127493 (Signal Transduction and Targeted Therapy, 2022)
Like-named read-outs stand apart in the source and are kept apart here.

Key:
[1] = Cytotoxicity of drugs used in pseudovirus experiments (MTS); assay type: cell-based; conditions: human; 293T-hACE2 cells, MTS assay at 48 hours, n = 3
Protocol: (§1) Cells were seeded into 96-well plates and exposed to serially diluted drugs for 48 h. Cell viability was determined using MTS (Promega, Madison, WI, USA), according to the manufacturer’ s instructions. The absorbance was measured in Varioskan Flash (Thermo) at 490 nm. Data were normalized to the control group (DMSO). CC50 values were calculated by concentration-response curve-fitting using GraphPad Prism.
293T-hACE2 cells were treated with serially diluted drugs and cytotoxicity was determined by MTS assay at 48 hours (n = 3).

[2] = tested on: SARS-CoV-2 wild-type isolate XM088T; assay: Antiviral efficacy assay, qRT-PCR of virus released in supernatants; assay type: cell-based; conditions: MOI of 0.05, pretreated 2 h, qRT-PCR at 48 h p.i., n = 3
[3] = Antiproliferation (MTS) assay, cytotoxicity; assay type: cell-based; conditions: African green monkey, Vero E6 cells
Protocol: as §1, with “Cell” for “Cells were seeded into 96-well plates and exposed to serially diluted drugs for 48 h. Cell”

Vero E6 cells = assay: Morphological observations, cytoplasmic vacuolization; assay type: cell-based, African green monkey; conditions: for induction of cytoplasmic vacuoles: Vero E6 cells, 5 μM, 8 h
Protocol: Morphological observations
Cells were seeded into 96-well plates and treated with test drugs for indicated time periods. Pictures of cells were subsequently obtained using Biotek Cytation-5&BioSpa8.

SARS-CoV-2 [4] = assay: Cytopathic effect (CPE) inhibition assay in Vero E6 cells; assay type: cell-based; conditions: wild-type SARS-CoV-2, MOI = 0.1, 48 h
[5] = parameters: method as in PMID 31628917; conditions: patients with Crohn’s disease and rheumatoid arthritis; cited from earlier work
293T-ACE2iRb3 cells = assay: Visualization of SARS-CoV-2 cell entry with STG probe; assay type: cell-based, human; conditions: pretreated with 2 μM for 1 h, 3 h post STG incubation
Protocol: Visulization of SARS-CoV-2 cell entry
To visualize the effect of drugs on viral entry, 293T-ACE2iRb3 cells were pretreated with serially diluted drugs for 1 h before STG probes addition for further incubation. Cell images shown in Fig 1e were acquired using a 100× oil immersion objective. The data shown in Fig S3 was derived from images acquired on Opera Phenix using 40× water immersion objective. For images of Fig 1e, cells were gently washed twice with PBS after 3 h incubation with STG, following a paraformaldehyde fixation before imaging. Cell images involved in Fig S3 were obtained under wash-free and live-cell conditions. The construction of STG probe used here and the image quantitative analysis were performed as previously described^1.
All drugs were tested in a 3-fold dilution series and the initial drug concentration was 15 μM. Three and five replicate wells were performed for the DMSO and drug groups, respectively. 25 fields of each well were imaged for quantitative analyses after 3 h incubation with STG-probe.

SARS-CoV-2 [6] = assay: Time-of-addition experiment; assay type: cell-based; conditions: Vero E6 cells, qRT-PCR at 24 h p.i. and nucleoprotein Western blot
Protocol: Time-of-addition experiment
Vero E6 cells were plated into 6-well plates and grew overnight. During “Full-time” treatment, cells were first treated with drug for two hours, and then infected with the virus for two hours. After that, the mixed supernatant was removed and cells were washed twice with PBS and finally cultured in fresh medium containing the same concentration of drug. For “Entry” treatment, pre-treatment and infection operations were similar to that in “Full-time” treatment. However, cells were cultured in drug-free medium after the mixed supernatant removed. As for “Post-entry” treatment, cells were infected with virus for 2 h before treated with drug for 2 h. Then the mixture was removed and fresh medium containing drug was added after cells were washed with PBS. The DMSO-control group was treated in the same way as “Full-time” group. For quantitative PCR, the MOI was controlled at 0.05 and supernatant was harvest at 24 h post infection. While for western blot, MOI was controlled at 0.30 and cells were harvest at 72 h post infection to identify the virus protein expression.

PIKfyve = target: T1, PIKfyve (Homo sapiens, UniProt Q9Y2I7); assay: KINOMEscan competitive binding assay, Kds determination
T1 construct: purchased Eurofins DiscoverX Corporation (KINOMEscan service); host or cells: HEK-293
T1 sequence (Q9Y2I7 whole entry): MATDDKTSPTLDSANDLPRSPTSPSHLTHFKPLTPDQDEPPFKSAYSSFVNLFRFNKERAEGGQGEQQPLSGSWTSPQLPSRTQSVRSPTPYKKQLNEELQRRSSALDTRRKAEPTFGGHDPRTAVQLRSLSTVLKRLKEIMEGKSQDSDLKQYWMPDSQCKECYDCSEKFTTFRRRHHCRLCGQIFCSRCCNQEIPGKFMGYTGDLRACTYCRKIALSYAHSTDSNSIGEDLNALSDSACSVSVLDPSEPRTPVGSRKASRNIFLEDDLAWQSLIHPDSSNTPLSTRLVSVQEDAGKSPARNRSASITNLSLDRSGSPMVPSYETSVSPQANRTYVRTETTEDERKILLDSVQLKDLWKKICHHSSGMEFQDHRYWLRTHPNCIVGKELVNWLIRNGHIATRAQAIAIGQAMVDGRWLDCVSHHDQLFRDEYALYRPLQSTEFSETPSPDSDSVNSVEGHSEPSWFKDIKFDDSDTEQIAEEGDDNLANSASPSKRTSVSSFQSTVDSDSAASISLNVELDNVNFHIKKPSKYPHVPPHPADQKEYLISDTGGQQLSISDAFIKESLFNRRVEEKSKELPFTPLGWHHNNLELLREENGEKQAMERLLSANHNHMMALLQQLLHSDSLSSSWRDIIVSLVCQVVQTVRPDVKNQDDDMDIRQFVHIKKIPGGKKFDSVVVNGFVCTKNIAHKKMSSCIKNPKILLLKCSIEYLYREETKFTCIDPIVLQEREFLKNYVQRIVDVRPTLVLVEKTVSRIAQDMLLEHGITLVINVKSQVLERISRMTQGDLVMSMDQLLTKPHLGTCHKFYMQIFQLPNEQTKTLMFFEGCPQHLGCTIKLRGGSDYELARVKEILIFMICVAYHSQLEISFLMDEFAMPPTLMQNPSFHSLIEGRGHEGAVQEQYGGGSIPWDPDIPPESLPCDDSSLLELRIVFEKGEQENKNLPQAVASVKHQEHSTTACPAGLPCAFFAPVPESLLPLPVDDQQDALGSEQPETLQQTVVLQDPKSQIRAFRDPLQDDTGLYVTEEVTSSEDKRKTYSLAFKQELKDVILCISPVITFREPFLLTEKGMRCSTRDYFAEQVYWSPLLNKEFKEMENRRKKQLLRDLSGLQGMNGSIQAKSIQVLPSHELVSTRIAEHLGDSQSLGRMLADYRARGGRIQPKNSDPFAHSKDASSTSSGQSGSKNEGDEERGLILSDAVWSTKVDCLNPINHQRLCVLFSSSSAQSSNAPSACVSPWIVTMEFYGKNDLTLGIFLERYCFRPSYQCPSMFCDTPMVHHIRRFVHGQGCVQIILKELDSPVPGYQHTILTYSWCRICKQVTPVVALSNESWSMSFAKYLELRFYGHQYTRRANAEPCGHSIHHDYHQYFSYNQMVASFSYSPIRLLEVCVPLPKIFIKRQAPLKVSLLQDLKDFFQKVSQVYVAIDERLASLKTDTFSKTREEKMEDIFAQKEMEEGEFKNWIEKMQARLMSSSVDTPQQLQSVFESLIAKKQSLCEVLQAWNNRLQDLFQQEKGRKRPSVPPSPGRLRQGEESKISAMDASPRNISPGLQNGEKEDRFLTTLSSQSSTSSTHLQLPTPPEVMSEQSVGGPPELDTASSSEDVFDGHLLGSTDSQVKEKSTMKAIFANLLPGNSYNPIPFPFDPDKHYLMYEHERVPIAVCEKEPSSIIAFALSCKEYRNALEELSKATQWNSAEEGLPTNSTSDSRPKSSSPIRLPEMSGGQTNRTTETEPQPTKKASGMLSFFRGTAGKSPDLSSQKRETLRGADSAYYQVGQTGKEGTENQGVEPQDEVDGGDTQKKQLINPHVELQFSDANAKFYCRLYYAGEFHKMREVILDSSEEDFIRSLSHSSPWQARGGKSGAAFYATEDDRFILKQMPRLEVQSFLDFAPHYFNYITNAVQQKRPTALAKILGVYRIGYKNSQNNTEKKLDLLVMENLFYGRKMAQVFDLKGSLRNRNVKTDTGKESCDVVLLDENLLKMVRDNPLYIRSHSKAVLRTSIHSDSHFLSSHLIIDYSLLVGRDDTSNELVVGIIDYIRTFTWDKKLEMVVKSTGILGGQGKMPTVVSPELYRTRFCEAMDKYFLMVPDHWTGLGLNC
Source text: KINOMEscan technology is a competitive affinity-based binding assay provided by Eurofins DiscoverX Corporation^3. Briefly, kinases were produced in HEK-293 cells and tagged with DNA for qPCR detection. Affinity resins were generated by treating streptavidin-coated magnetic beads with biotinylated small molecule ligands. For binding assays, the liganded beads were combined with DNA-tagged kinases and the test compounds. DMSO was used as a control. Compounds that bind to the DNA-tagged kinases will prevent these kinases binding with immobilized ligands and reduce the amount of the corresponding kinases captured on solid support. Kds were determined using 11 serial threefold dilutions of the test compounds and a DMSO control.
Supplementary Figure S1. The equilibrium dissociation constant (Kd) for XMU-MP-7 with PIKfyve was determined from 2 independent titration curves.

[7] = Pharmacokinetics after single intravenous and oral administration; assay type: in vivo; conditions: Sprague Dawley, plasma, rat; for MRT inf: read-out: MRT(0-∞)
Protocol: The pharmacokinetics of XMU-MP-7 were determined following single intravenous and oral administration in Sprague Dawley rat (N = 3/each) at the dose indicated. Blood samples were collected at 0.08, 0.25, 0.5, 1, 2, 4, 8 & 24 hr (IV) & 0.25, 0.5, 1, 2, 4, 6, 8 & 24 hr (PO) post dose. Then the samples were quantified by LC-MS/MS, and data analysis was conducted using WinNonlin V6.3. IV = intravenous injection, PO = oral delivery, Tmax = time of maximum plasma concentration, Cmax = maximum plasma concentration, AUC = area under the curve (measure of exposure), T1/2 = half life, Cl = plasma clearance, Vd = volume of distribution, F = oral bioavailability.

cathepsin B = assay: Cathepsin B activation, Western blot; assay type: cell-based, human; conditions: A549 cells, time- and dose-dependent
[8] = Severe acute respiratory syndrome coronavirus 2, Vero C1008, Vero E6 cells

SMILES	CC50 at 48 h [1] [µM]	EC50 [2, 8] [µM]	CC50 at 48 h ([3]; 48 h, n = 3) [µM]	time to visible cytoplasmic vacuoles (Vero E6 cells)	induction of cytoplasmic vacuoles (Vero E6 cells)	rescue of cytopathic effect (SARS-CoV-2 [4])	STG probe internalization (confocal images) (293T-ACE2iRb3 cells)	stage of infection at which the drug acts (SARS-CoV-2 [6])	Kd (PIKfyve) [µM]	further results
Cc1cccc(/C=N/Nc2cc(N3CCOCC3)nc(OCCc3ccccn3)n2)c1 [Apilimod]	> 10	< 0.0069	41.8	less than 20 min	induced cytoplasmic vacuoles	significantly rescued the cytopathic effects	almost completely trapped on the enlarged cytoplasmic vacuoles			bioavailability [5]: poor bioavailability; plasma concentration [5]: unexpected low plasma concentration
CCN(CC)CCCC(C)Nc1ccnc2cc(Cl)ccc12 (stereo not drawn) [Chloroquine]		0.549	54.8							EC50 ([2]; Vero E6 cells): ~0.5 µM
CC(C)(C)[C@H](NC(=O)C(F)(F)F)C(=O)N1C[C@H]2[C@@H]([C@H]1C(=O)N[C@H](C#N)C[C@@H]1CCNC1=O)C2(C)C [PF-07321332]										EC50 ([2]; Vero E6 cells, read-out: EC50): 0.487 µM
CCC(CC)COC(=O)[C@H](C)N[P@](=O)(OC[C@H]1O[C@@](C#N)(c2ccc3c(N)ncnn23)[C@H](O)[C@@H]1O)Oc1ccccc1 [Remdesivir]		1.64	> 150				STG entered the cytoplasm	only exerted an inhibitory effect at post-entry stage		
COc1ccc(C(=O)Nc2cccc(C(F)(F)F)c2)cc1Nc1nc(-c2cccnc2)c2[nH]ccc2n1 [XMU-MP-7]	> 10	0.0093		less than 20 min	dramatically induced cytoplasmic vacuoles	significantly rescued the cytopathic effects	almost completely trapped on the enlarged cytoplasmic vacuoles	potent antiviral roles at both entry and post-entry stages	0.0064	CC50 at 48 h [3]: > 150 µM; AUC(0-inf) ([7]; IV, 2 mg/kg): 4.25 µg·h/mL; AUC(0-t) ([7]; IV, 2 mg/kg): 4.25 µg·h/mL; C0 ([7]; IV, 2 mg/kg): 14 µg/mL; Tmax ([7]; IV, 2 mg/kg): 0.08 h; Vd ([7]; IV, 2 mg/kg): 0.2 L/kg; clearance ([7]; IV, 2 mg/kg): 0.473 L/h/kg; half-life ([7]; IV, 2 mg/kg): 0.608 h; MRT inf ([7]; IV, 2 mg/kg): 0.429 h; AUC(0-inf) ([7]; PO, 10 mg/kg): 2.21 µg·h/mL; AUC(0-t) ([7]; PO, 10 mg/kg): 2.2 µg·h/mL; Cmax ([7]; PO, 10 mg/kg): 0.429 µg/mL; Tmax ([7]; PO, 10 mg/kg): 2.33 h; half-life ([7]; PO, 10 mg/kg): 3.06 h; bioavailability ([7]; PO, 10 mg/kg, read-out: F (oral bioavailability)): 10.4%; MRT inf ([7]; PO, 10 mg/kg): 3.81 h; maturation of active cathepsin B (cathepsin B): impaired the maturation of active cathepsin B
Cc1ccc(NC(=O)c2cccc(C(F)(F)F)c2)cc1Nc1nc(-c2ccncc2)c2[nH]ccc2n1 [cmpd 24]	> 10	12.3	51.7		could not induce visible vacuoles		STG entered the cytoplasm		> 30	
